Converted amounts (≈) assume the structure as drawn.
Legend:
Assay in all cases: Antimicrobial activity, MIC by broth microdilution
Assay type in all cases: cell-based
[1] = tested on: Klebsiella pneumoniae strain ATCC13883; settings: ATCC13883, cation-adjusted Mueller-Hinton broth, about 5×10^5 CFU/mL, 35° C., about 18 hours, read-out: MIC Klebsiella pneumoniae ATCC13883
Text: (§1) Test Example 4 Evaluation of the Antimicrobial Activity
(§2) For minimum inhibitory concentration (MIC) measurement, the following broth microdilution method was applied as adapted from the standard procedure recommended by the CLSI (Clinical and Laboratory Standards Institute).
(§3) The bacteria used were Pseudomonas aeruginosa strain ATCC27853, Escherichia coli strain ATCC25922, and Klebsiella pneumoniae strain ATCC13883. After culture overnight on a heart infusion agar medium, the cells of a test bacterium were scraped off, and a bacterial solution suspended to have a turbidity of level 0.5 on the McFarland scale was diluted and used as an inoculum solution. The inoculum solution was inoculated in a cation-adjusted Mueller-Hinton broth medium containing a test compound so that the final inoculation concentration was about 5×10^5 CFU/mL, and cultured at 35° C. for about 18 hours. A minimum drug concentration at which no cell growth was visible to the naked eye was designated as MIC. […] In the table, ND represents the case where suppression of the cell growth in a drug concentration-dependent manner was not observed (Not Determined), and NT represents that no test was conducted (Not Tested).

[2] = tested on: Pseudomonas aeruginosa strain ATCC27853; settings: ATCC27853, 18 h, cation-adjusted Mueller-Hinton broth, about 5×10^5 CFU/mL, 35° C., about 18 hours, read-out: MIC Pseudomonas aeruginosa ATCC27853
Text: as §1, §2, §3

[3] = tested on: Escherichia coli strain ATCC25922; settings: ATCC25922, 18 h, cation-adjusted Mueller-Hinton broth, about 5×10^5 CFU/mL, 35° C., about 18 hours, read-out: MIC Escherichia coli ATCC25922
Text: as §1, §2, §3

| Compound | MIC [1] [µg/mL] | MIC [2] [µg/mL] | MIC [3] [µg/mL] |
| --- | --- | --- | --- |
| C[C@H](O)c1nccn1Cc1cc(-c2ccc(C#C[C@H]3C[C@H](N)C3)cc2)on1 [Compound 23, (1S)-1-{1-[(5-(4-[(trans-3-aminocyclobutyl)ethynyl]phenyl}-1,2-oxazol-3-yl)methyl]-1H-imidazol-2-yl}ethan-1-ol] | 8 (≈ 22.1 µM) | 16 (≈ 44.1 µM) | 4 (≈ 11 µM) |
| C[C@H](O)c1nccn1Cc1cc(-c2ccc(C#CCN)cc2)on1 [Compound 30, (1S)-1-[l-({5-[4-(3-aminoprop-1-yn-1-yl)phenyl]-1,2-oxazol-3-yl}methyl)-1H-imidazol-2-yl]ethan-1-ol] | > 128 | 64 (≈ 199 µM) | 64 (≈ 199 µM) |
| C[C@H](O)c1nccn1Cc1cc(-c2ccc(C#C[C@H]3C[C@H](O)C3)cc2)on1 [Compound 54, trans-3-({4-[3-({2-[(1S)-1-Hydroxyethyl]-1H-imidazol-1-yl}methyl)-1,2-oxazol-5-yl]phenyl}ethynyl)cyclobutan-1-ol] | 0.25 (≈ 0.688 µM) | 16 (≈ 44 µM) | 0.12 (≈ 0.33 µM) |
| C[C@H](O)c1nccn1[C@H](CN)c1cc(-c2ccc(C#CC3CC3)cc2)on1 [Compound 60, (1S)-1-{1-[(1R)-2-amino-1-(5-[4-(cyclopropylethynyl)phenyl]-1,2-oxazol-3-yl}ethyl]-1H-imidazol-2-yl}ethan-1-ol] | 0.25 (≈ 0.69 µM) | 8 (≈ 22.1 µM) | 0.25 (≈ 0.69 µM) |
| C[C@H](O)c1nccn1Cc1cc(-c2ccc(C#C[C@@H]3[C@H]4CN(CCCC(=O)O)C[C@@H]34)cc2)on1 [Compound 67, 4-[(1R,5S,6s)-6-({4-[3-({2-[(1S)-1-Hydroxyethyl]-1H-imidazol-1-yl}methyl)-1,2-oxazol-5-yl]phenyl}ethynyl)-3-azabicyclo[3.1.0]hexan-3-yl]butanoic acid] | 4 (≈ 8.69 µM) | 8 (≈ 17.4 µM) | 2 (≈ 4.34 µM) |
| C[C@H](O)c1nccn1[C@H](CN)c1cc(-c2ccc(C#CC3CCOC3)cc2)on1 (stereo partly drawn) [Compound 75, (1S)-1-{1-[(1R)-2-amino-1-(5-{4-[(oxolan-3-yl)ethynyl]phenyl}-1,2-oxazol-3-yl)ethyl]-1H-imidazol-2-yl} ethan-1-ol] | 2 (≈ 5.1 µM) | 64 (≈ 163 µM) | 0.25 (≈ 0.637 µM) |
| C[C@H](O)c1nccn1Cc1cc(-c2ccc(C#C[C@H]3C[C@@H](O)C3)cc2)on1 [Compound 88, cis-3-({4-[3-((2-[(1S)-1-Hydroxyethyl]-1H-imidazol-1-yl}methyl)-1,2-oxazol-5-yl]phenyl}ethynyl)cyclobutan-1-ol] | 0.25 (≈ 0.688 µM) | 16 (≈ 44 µM) | 0.12 (≈ 0.33 µM) |
| C[C@H](O)c1nccn1[C@H](CN)c1cc(-c2ccc(C#C[C@H]3C[C@@](O)(CO)C3)cc2)on1 [Compound 89, trans-3-[(4-(3-[(1R)-2-Amino-1-{2-[(1S)-1-hydroxyethyl]-1H-imidazol-1-yl}ethyl]-1,2-oxazol-5-yl}phenyl)ethynyl]-1-(hydroxymethyl)cyclobutan-1-ol] | 8 (≈ 18.9 µM) | 4 (≈ 9.47 µM) | 2 (≈ 4.73 µM) |
| C[C@H](O)c1nccn1[C@H](CN)c1cc(-c2ccc(C#C[C@H]3C[C@](O)(CO)C3)cc2)on1 [Compound 90, cis-3-[(4-{3-[(1R)-2-amino-1-{2-[(1S)-1-hydroxyethyl]-1H-imidazol-1-yl}ethyl]-1,2-oxazol-5-yl}phenyl)ethynyl]-1-(hydroxymethyl)cyclobutan-1-ol] | 8 (≈ 18.9 µM) | 4 (≈ 9.47 µM) | 4 (≈ 9.47 µM) |
| C[C@H](O)c1nccn1[C@H](CN)c1cc(-c2ccc(C#C[C@H]3C[C@H](O)C3)cc2)no1 [Compound 100, trans-3-[(4-{5-[(1R)-2-amino-1-{2-[(1S)-1-hydroxyethyl]-1H-imidazol-1-yl}ethyl]-1,2-oxazol-3-yl}phenyl)ethynyl]cyclobutan-1-ol] | 4 (≈ 10.2 µM) | – | – |
| C[C@H](O)c1nccn1[C@H](CN)c1cc(-c2ccc(C#C[C@H]3C[C@H](NC=O)C3)cc2)on1 [Compound 106, N-{trans-3-[(4-{3-[(1R)-2-amino-1-(2-[(1S)-1-hydroxyethyl]-1H-imidazol-1-yl}ethyl]-1,2-oxazol-5-yl}phenyl)ethynyl]cyclobutyl}formamide] | 4 (≈ 9.54 µM) | 8 (≈ 19.1 µM) | 2 (≈ 4.77 µM) |
| C[C@H](O)c1nccn1[C@H](CN)c1cc(-c2ccc(C#C[C@H]3C[C@H](NCCO)C3)cc2)on1 [Compound 134, (1S)-1-{1-[(1R)-2-amino-1-{5-[4-({trans-3-[(2-hydroxyethyl)amino]cyclobutyl}ethynyl)phenyl]-1,2-oxazol-3-yl}ethyl]-1H-imidazol-2-yl}ethan-1-ol] | 32 (≈ 73.5 µM) | 4 (≈ 9.18 µM) | – |

The remaining lines, values ahead:

| MIC [1] [µg/mL] | MIC [2] [µg/mL] | MIC [3] [µg/mL] | Compound |
| --- | --- | --- | --- |
| – | 4 (≈ 8.67 µM) | 2 (≈ 4.33 µM) | CNC[C@H](c1cc(-c2ccc(C#C[C@@H]3[C@H]4CN(CCO)C[C@@H]34)cc2)on1)n1ccnc1[C@H](C)O [Compound 38, (1S)-1-{1-[(1R)-1-[5-(4-{[(1R,5S,6s)-3-(2-Hydroxyethyl)-3-azabicyclo[3.1.0]hexan-6-yl]ethynyl}phenyl)-1,2-oxazol-3-yl]-2-(methylamino)ethyl]-1H-imidazol-2-yl}ethan-1-ol] |
| – | 8 (≈ 19.8 µM) | – | C[C@H](O)c1nccn1[C@H](CN)c1cc(-c2ccc(C#CC3C4COCC34)cc2)on1 (stereo partly drawn) [Compound 58, (1S)-1-{1-[(1R)-2-amino-1-(5-{4-[(3-oxabicyclo[3.1.0]hexan-6-yl)ethynyl]phenyl}-1,2-oxazol-3-yl)ethyl]-1H-imidazol-2-yl} ethan-1-ol] |
| 8 (≈ 18 µM) | 32 (≈ 71.8 µM) | – | CC(=O)N1C[C@@H]2[C@@H](C#Cc3ccc(-c4cc([C@@H](CN)n5ccnc5[C@H](C)O)no4)cc3)[C@@H]2C1 [Compound 91, 1-{(1R,5S,6s)-6-[(4-{3-[(1R)-2-Amino-1-{2-[(1S)-1-hydroxyethyl]-1H-imidazol-1-yl}ethyl]-1,2-oxazol-5-yl}phenyl)ethynyl]-3-azabicyclo[3.1.0]hexan-3-yl}ethan-1-one] |
| 1 (≈ 2.17 µM) | 2 (≈ 4.33 µM) | 0.5 (≈ 1.08 µM) | COCCN1C[C@@H]2[C@@H](C#Cc3ccc(-c4cc([C@@H](CN)n5ccnc5[C@H](C)O)no4)cc3)[C@@H]2C1 [Compound 101, (1S)-1-(1-{(1R)-2-Amino-1-[5-(4-{[(1R,5S,6s)-3-(2-methoxyethyl)-3-azabicyclo[3.1.0]hexan-6-yl]ethynyl}phenyl)-1,2-oxazol-3-yl]ethyl}-1H-imidazol-2-yl)ethan-1-ol] |
| 16 (≈ 32.7 µM) | 4 (≈ 8.17 µM) | 4 (≈ 8.17 µM) | C[C@H](O)c1nccn1[C@H](CN)c1cc(-c2ccc(C#C[C@@H]3[C@H]4CN(CCCC(=O)O)C[C@@H]34)cc2)on1 [Compound 113, 4-{(1R,5S,6s)-6-[(4-{3-[(1R)-2-amino-1-{2-[(1S)-1-hydroxyethyl]-1H-imidazol-1-yl}ethyl]-1,2-oxazol-5-yl}phenyl)ethynyl]-3-azabicyclo[3.1.0]hexan-3-yl}butanoic acid] |
| 32 (≈ 76.1 µM) | 8 (≈ 19 µM) | – | C[C@H](O)c1nccn1[C@H](CN)c1cc(-c2ccc(C#CC3CC(C(=O)O)C3)cc2)on1 (stereo partly drawn) [Compound 130, 3-[(4-{3-{(1R)-2-amino-1-(2-[(1S)-1-hydroxyethyl]-1H-imidazol-1-yl}ethyl]-1,2-oxazol-5-yl}phenyl)ethynyl]cyclobutane-1-carboxylate] |
| 4 (≈ 8.67 µM) | 4 (≈ 8.67 µM) | – | C[C@H](O)c1nccn1[C@H](CN)c1cc(-c2ccc(C#C[C@@H]3[C@H]4CN(C[C@@H](C)O)C[C@@H]34)cc2)on1 [Compound 137, (R)-1-((1R,5S,6R)-6-((4-(3-((R)-2-amino-1-(2-((S)-1-hydroxyethyl)-1H-imidazol-1-yl)ethyl)isoxazol-5-yl)phenyl)ethynyl)-3-azabicyclo[3.1.0]hexan-3-yl)propan-2-ol] |

Reference: patent US20220002279A1, “NOVEL IMIDAZOLE DERIVATIVE” (priority 2018, published 2022)
